Assay [1] has as its target human Factor Xa (Homo sapiens, UniProt P00742). In words: Measurement of Factor Xa Inhibition (test a, chromogenic substrate S-2765). It counts as biochemical. To be noted: pH 7.5, 37° C., human Factor Xa 0.001 Units/ml. As to the method:
a) Measurement of Factor Xa Inhibition
An in vitro assay system was carried out based on the method of Kettner et al., J. Biol. Chem., 1990, 265, 18289-18297, whereby various concentrations of a test compound were dissolved in a pH7.5 buffer containing 0.5% of a polyethylene glycol (PEG 6000) and incubated at 37° C. with human Factor Xa (0.001 Units/ml, 0.3 ml) for 15 minutes. The chromogenic substrate S-2765 (KabiVitum AB, 20 μM) was added and the mixture was incubated at 37° C. for 20 minutes whilst the absorbance at 405 nm was measured. The maximum reaction velocity (Vmax) was determined and compared with that of a control sample containing no test compound. Inhibitor potency was expressed as an IC50 value.

In assay [2] the target is T1, human thrombin (Homo sapiens, UniProt P00734).
T1 construct: cleaves prothrombin to generate thrombin
In words: Measurement of Thrombin Inhibition (test b, chromogenic substrate S-2238). As to conditions: human thrombin 0.005 Units/ml, S-2238 7 μM. It counts as biochemical. The procedure: b) Measurement of Thrombin Inhibition
The procedure of method a) was repeated except that human thrombin (0.005 Units/ml) and the chromogenic substrate S-2238 (KabiVitum AB, 7 μM) were employed.

In assay [3] the test system is human, rat or rabbit blood plasma (prothrombin time). In words: Measurement of Anticoagulant Activity, prothrombin time (PT) test in vitro (test c). As to conditions: plasma incubated 10 minutes at 37° C., species not given. As to the method: c) Measurement of Anticoagulant Activity
An in vitro assay whereby human, rat or rabbit venous blood was collected and added directly to a sodium citrate solution (3.2 g/100 ml, 9 parts blood to 1 part citrate solution). Blood plasma was prepared by centrifugation (1000 g, 15 minutes) and stored at 2-4° C. Conventional prothrombin time (PT) tests were carried out in the presence of various concentrations of a test compound and the concentration of test compound required to double the clotting time, hereinafter referred to as CT2, was determined. In the PT test, the test compound and blood plasma were incubated at 37° C. for 10 minutes. Tissue thromboplastin with calcium (Sigma Limited, Poole, England) was added. Fibrin formation and the time required for a clot to form were determined.

In assay [4] the test system is Factor Xa. To be noted: known from the literature; cited from earlier work.
For assay [5], the system named is various animal models of thrombotic disease. As to conditions: cited from earlier work.

human Factor Xa, sequence (P00742 235-488 limits assumed): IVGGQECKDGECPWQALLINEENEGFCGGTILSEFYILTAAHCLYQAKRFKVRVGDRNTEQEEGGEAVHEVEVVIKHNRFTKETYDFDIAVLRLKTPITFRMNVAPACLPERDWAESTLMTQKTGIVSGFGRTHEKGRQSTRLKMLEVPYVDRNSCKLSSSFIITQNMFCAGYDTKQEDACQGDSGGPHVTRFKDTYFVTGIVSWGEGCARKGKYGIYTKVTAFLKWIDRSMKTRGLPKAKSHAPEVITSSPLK
human Factor Xa, sequence (P00742 41-179 partner limits assumed): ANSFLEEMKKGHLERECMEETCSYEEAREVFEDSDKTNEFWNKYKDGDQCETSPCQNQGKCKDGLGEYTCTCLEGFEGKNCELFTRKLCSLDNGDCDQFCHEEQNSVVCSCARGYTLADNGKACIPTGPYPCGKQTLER

For the molecule `CCSCCNC(=O)C1CN(S(=O)(=O)c2ccc3cc(Br)ccc3c2)CCN1C(=O)C1CCN(c2ccncc2)CC1` (stereo not shown) [Example 1, 4-(6-Bromonaphth-2-ylsulphonyl)-2-[N-(2-(ethylthio)ethyl)carbamoyl]-[1-1-(4-pyridyl)piperidin-4-ylcarbonyl]piperazine], the results for the half-maximal inhibitory concentration (IC50) in assay [1] and in assay [2] were 4 nM and above 5000 nM, respectively. The “CT2 (PT), concentration of test compound required to double the clotting time” value in assay [3] was determined as 1 µM.

“tick anticoagulant protein (TAP): protein, specific Factor Xa inhibitor which possesses antithrombotic properties (YNRLCIKPRDWIDECDSNEGGERAYFRNGKGGCDSFWICPEDHTGADYYSSYRDCFNACI; UniProt P17726 1-60, looked up)”: the “Factor Xa inhibition (specificity, in words)” value in assay [4] is reported as “specific Factor Xa inhibitors”. In addition, the “antithrombotic properties (in words)” value in assay [5] was “possess antithrombotic properties”.

B1: antistasin: protein, specific Factor Xa inhibitor which possesses antithrombotic properties (protein, UniProt P15358 18-136, looked up)
Antistasin: QGPFGPGCEEAGCPEGSACNIITDRCTCSGVRCRMHCPHGFQRSRYGCEFCKCRLEPMKATCDISECPEGMMCSRLTNKCDCKIDINCRKTCPNGLKRDKLGCEYCECRPKRKLIPRLS
Take B1: the “Factor Xa inhibition (specificity, in words)” value in assay [4] was “specific Factor Xa inhibitors”. The “antithrombotic properties (in words)” value in assay [5] is given as “possess antithrombotic properties”.
